Test results: ChEMBL document CHEMBL3885861, “Open TG-GATES”

Species: Rattus norvegicus
Test: Open TG-GATES - Regimen: Daily Repeat
Assay type: toxicity, organism-based, Sprague-Dawley
Design: regimen Daily Repeat, gender Male, age 6 weeks
Conditions: in vivo, po, route gavage; for APTT / Bas / Eos / Fbg / Hb / Ht / Lym / MCH / MCHC / MCV / Mono / Neu / PT / Plat / RBC / Ret / WBC: tissue Blood; for KIDNEY_L / KIDNEY_R / KIDNEY_TOTAL: tissue Kidney; for LIVER: tissue Liver; for A/G / ALP / ALT / AST / BUN / CRE / Ca / Cl / DBIL / GLC / IP / K / LDH / Na / PL / RALB / TBIL / TC / TG / TP / gamma-GTP: tissue Plasma
[1] = 0 mg/kg, 72 h, dose level Control, time 3 day
[2] = 0 mg/kg, […], dose level Control, time 7 day
[3] = 0 mg/kg, […], dose level Control, time 14 day
[4] = 0 mg/kg, […], dose level Control, time 28 day
[5] = 30 mg/kg, 72 h, dose level Low, time 3 day
[6] = 30 mg/kg, […], dose level Low, time 7 day
[7] = 30 mg/kg, […], dose level Low, time 14 day
[8] = 30 mg/kg, […], dose level Low, time 28 day

Clc1c(Cl)c(Cl)c(Cl)c(Cl)c1Cl [PERCHLOROBENZENE]
TERMINAL_BW [1]: 224.3 g
APTT [1]: 16.2 s
Bas [1]: 0%
Eos [1]: 1.2%
Fbg [1]: 217.4 mg/dL
Hb [1]: 13.7 g/dL
Ht [1]: 40.9%
Lym [1]: 77%
MCH [1]: 22 pg
MCHC [1]: 33.5%
MCV [1]: 65.6 fL
Mono [1]: 8%
Neu [1]: 13.8%
PT [1]: 11.8 s
Plat [1]: 98.6 x10_4/uL
RBC [1]: 623.2 x10_4/ul
Ret [1]: 8.6%
WBC [1]: 102.9 x10_2/uL
KIDNEY_L [1]: 1.1 g
KIDNEY_R [1]: 1.1 g
KIDNEY_TOTAL [1]: 2.2 g
LIVER [1]: 11.5 g
A/G [1]: 2.1
ALP [1]: 882.4 IU/L
ALT [1]: 40.2 IU/L
AST [1]: 59 IU/L
BUN [1]: 16.2 mg/dL
CRE [1]: 0.5 mg/dL
Ca [1]: 10.5 mg/dL
Cl [1]: 105.2 meq/L
DBIL [1]: 0.038 mg/dL
GLC [1]: 193.4 mg/dL
IP [1]: 8.5 mg/dL
K [1]: 5.4 meq/L
LDH [1]: 85.8 IU/L
Na [1]: 138.6 meq/L
PL [1]: 135 mg/dL
RALB [1]: 3.9 g/dL
TBIL [1]: 0.3 mg/dL
TC [1]: 73 mg/dL
TG [1]: 68.8 mg/dL
TP [1]: 5.8 g/dL
gamma-GTP [1]: 1.4 IU/L
TERMINAL_BW [2]: 255.4 g
TERMINAL_BW [3]: 321.1 g
TERMINAL_BW [4]: 417.1 g
APTT [2]: 15.8 s
Bas [2]: 0%
Eos [2]: 1.2%
Fbg [2]: 222.8 mg/dL
Hb [2]: 14.2 g/dL
Ht [2]: 42.4%
Lym [2]: 76.6%
MCH [2]: 21.8 pg
MCHC [2]: 33.4%
MCV [2]: 65.2 fL
Mono [2]: 7.2%
Neu [2]: 14.8%
PT [2]: 12 s
Plat [2]: 96.5 x10_4/uL
RBC [2]: 651.2 x10_4/ul
Ret [2]: 5.9%
WBC [2]: 105.4 x10_2/uL
APTT [3]: 16 s
Bas [3]: 0%
Eos [3]: 1%
Fbg [3]: 237.6 mg/dL
Hb [3]: 14.4 g/dL
Ht [3]: 43%
Lym [3]: 78.8%
MCH [3]: 21.2 pg
MCHC [3]: 33.5%
MCV [3]: 63.2 fL
Mono [3]: 6.4%
Neu [3]: 13.8%
PT [3]: 11.9 s
Plat [3]: 106.8 x10_4/uL
RBC [3]: 681.2 x10_4/ul
Ret [3]: 5.2%
WBC [3]: 160.8 x10_2/uL
APTT [4]: 16.5 s
Bas [4]: 0%
Eos [4]: 1.2%
Fbg [4]: 221 mg/dL
Hb [4]: 15.2 g/dL
Ht [4]: 45.9%
Lym [4]: 83.4%
MCH [4]: 19.3 pg
MCHC [4]: 33.1%
MCV [4]: 58.5 fL
Mono [4]: 4.8%
Neu [4]: 10.8%
PT [4]: 11.7 s
Plat [4]: 97.1 x10_4/uL
RBC [4]: 783.8 x10_4/ul
Ret [4]: 2.5%
WBC [4]: 133.5 x10_2/uL
KIDNEY_L [2]: 1.1 g
KIDNEY_R [2]: 1.2 g
KIDNEY_TOTAL [2]: 2.3 g
KIDNEY_L [3]: 1.3 g
KIDNEY_R [3]: 1.3 g
KIDNEY_TOTAL [3]: 2.6 g
KIDNEY_L [4]: 1.4 g
KIDNEY_R [4]: 1.5 g
KIDNEY_TOTAL [4]: 2.9 g
LIVER [2]: 12.9 g
LIVER [3]: 15.7 g
LIVER [4]: 18.2 g
A/G [2]: 2
ALP [2]: 912 IU/L
ALT [2]: 33.4 IU/L
AST [2]: 58.6 IU/L
BUN [2]: 19.2 mg/dL
CRE [2]: 0.6 mg/dL
Ca [2]: 10.3 mg/dL
Cl [2]: 105.2 meq/L
DBIL [2]: 0.024 mg/dL
GLC [2]: 193.6 mg/dL
IP [2]: 7.7 mg/dL
K [2]: 4.8 meq/L
LDH [2]: 95.8 IU/L
Na [2]: 137.4 meq/L
PL [2]: 148.6 mg/dL
RALB [2]: 4 g/dL
TBIL [2]: 0.4 mg/dL
TC [2]: 78.2 mg/dL
TG [2]: 94.6 mg/dL
TP [2]: 5.9 g/dL
gamma-GTP [2]: 1 IU/L
A/G [3]: 1.8
ALP [3]: 615.2 IU/L
ALT [3]: 31.2 IU/L
AST [3]: 58.2 IU/L
BUN [3]: 18.6 mg/dL
CRE [3]: 0.6 mg/dL
Ca [3]: 10.2 mg/dL
Cl [3]: 105.6 meq/L
DBIL [3]: 0.004 mg/dL
GLC [3]: 189 mg/dL
IP [3]: 7.6 mg/dL
K [3]: 4.9 meq/L
LDH [3]: 98 IU/L
Na [3]: 138.4 meq/L
PL [3]: 155.6 mg/dL
RALB [3]: 4 g/dL
TBIL [3]: 0.3 mg/dL
TC [3]: 79 mg/dL
TG [3]: 136.4 mg/dL
TP [3]: 6.2 g/dL
gamma-GTP [3]: 1.2 IU/L
A/G [4]: 1.8
ALP [4]: 643.6 IU/L
ALT [4]: 32.6 IU/L
AST [4]: 54.2 IU/L
BUN [4]: 18.6 mg/dL
CRE [4]: 0.7 mg/dL
Ca [4]: 10.6 mg/dL
Cl [4]: 105.4 meq/L
DBIL [4]: 0.014 mg/dL
GLC [4]: 193 mg/dL
IP [4]: 7.5 mg/dL
K [4]: 4.3 meq/L
LDH [4]: 102 IU/L
Na [4]: 140 meq/L
PL [4]: 160.4 mg/dL
RALB [4]: 4.2 g/dL
TBIL [4]: 0.3 mg/dL
TC [4]: 77 mg/dL
TG [4]: 140.6 mg/dL
TP [4]: 6.5 g/dL
gamma-GTP [4]: 1 IU/L
TERMINAL_BW [5]: 223.9 g
APTT [5]: 16.2 s
Bas [5]: 0%
Eos [5]: 1.2%
Fbg [5]: 215.4 mg/dL
Hb [5]: 13.9 g/dL
Ht [5]: 41.8%
Lym [5]: 72.2%
MCH [5]: 21.8 pg
MCHC [5]: 33.3%
MCV [5]: 65.6 fL
Mono [5]: 6.8%
Neu [5]: 19.6%
PT [5]: 11.5 s
Plat [5]: 98.9 x10_4/uL
RBC [5]: 637.6 x10_4/ul
Ret [5]: 7.6%
WBC [5]: 102.3 x10_2/uL
KIDNEY_L [5]: 1.1 g
KIDNEY_R [5]: 1.1 g
KIDNEY_TOTAL [5]: 2.2 g
LIVER [5]: 12.4 g
A/G [5]: 2.2
ALP [5]: 816 IU/L
ALT [5]: 41.6 IU/L
AST [5]: 67 IU/L
BUN [5]: 14.6 mg/dL
CRE [5]: 0.5 mg/dL
Ca [5]: 10.5 mg/dL
Cl [5]: 105.6 meq/L
DBIL [5]: 0.028 mg/dL
GLC [5]: 194.4 mg/dL
IP [5]: 8.3 mg/dL
K [5]: 5.1 meq/L
LDH [5]: 104 IU/L
Na [5]: 139.6 meq/L
PL [5]: 143.8 mg/dL
RALB [5]: 3.9 g/dL
TBIL [5]: 0.4 mg/dL
TC [5]: 82 mg/dL
TG [5]: 79.8 mg/dL
TP [5]: 5.7 g/dL
gamma-GTP [5]: 1.4 IU/L
TERMINAL_BW [6]: 255.4 g
TERMINAL_BW [7]: 320.4 g
TERMINAL_BW [8]: 413.2 g
APTT [6]: 16.5 s
Bas [6]: 0%
Eos [6]: 1.4%
Fbg [6]: 225 mg/dL
Hb [6]: 14 g/dL
Ht [6]: 42%
Lym [6]: 79.6%
MCH [6]: 21.1 pg
MCHC [6]: 33.4%
MCV [6]: 63.3 fL
Mono [6]: 5.2%
Neu [6]: 14.2%
PT [6]: 11.6 s
Plat [6]: 116.4 x10_4/uL
RBC [6]: 663.6 x10_4/ul
Ret [6]: 5.4%
WBC [6]: 97.6 x10_2/uL
APTT [7]: 17.7 s
Bas [7]: 0%
Eos [7]: 1.6%
Fbg [7]: 225.8 mg/dL
Hb [7]: 14.4 g/dL
Ht [7]: 43%
Lym [7]: 66.8%
MCH [7]: 20.5 pg
MCHC [7]: 33.5%
MCV [7]: 61.3 fL
Mono [7]: 12%
Neu [7]: 19.6%
PT [7]: 11.9 s
Plat [7]: 119 x10_4/uL
RBC [7]: 702.6 x10_4/ul
Ret [7]: 4.3%
WBC [7]: 113.1 x10_2/uL
APTT [8]: 21.6 s
Bas [8]: 0%
Eos [8]: 1.8%
Fbg [8]: 258.6 mg/dL
Hb [8]: 15 g/dL
Ht [8]: 44.8%
Lym [8]: 69.8%
MCH [8]: 20.4 pg
MCHC [8]: 33.4%
MCV [8]: 61 fL
Mono [8]: 12%
Neu [8]: 16.2%
PT [8]: 13.2 s
Plat [8]: 102.4 x10_4/uL
RBC [8]: 735 x10_4/ul
Ret [8]: 3%
WBC [8]: 113.2 x10_2/uL
KIDNEY_L [6]: 1.2 g
KIDNEY_R [6]: 1.2 g
KIDNEY_TOTAL [6]: 2.4 g
KIDNEY_L [7]: 1.3 g
KIDNEY_R [7]: 1.4 g
KIDNEY_TOTAL [7]: 2.7 g
KIDNEY_L [8]: 1.7 g
KIDNEY_R [8]: 1.7 g
KIDNEY_TOTAL [8]: 3.4 g
LIVER [6]: 14.7 g
LIVER [7]: 20.2 g
LIVER [8]: 27.3 g
A/G [6]: 2.1
ALP [6]: 719.8 IU/L
ALT [6]: 33.2 IU/L
AST [6]: 55.8 IU/L
BUN [6]: 15.8 mg/dL
CRE [6]: 0.6 mg/dL
Ca [6]: 10.4 mg/dL
Cl [6]: 104.8 meq/L
DBIL [6]: 0.002 mg/dL
GLC [6]: 190.6 mg/dL
IP [6]: 7.9 mg/dL
K [6]: 5 meq/L
LDH [6]: 93.6 IU/L
Na [6]: 137.6 meq/L
PL [6]: 166.4 mg/dL
RALB [6]: 4 g/dL
TBIL [6]: 0.5 mg/dL
TC [6]: 89.4 mg/dL
TG [6]: 129.8 mg/dL
TP [6]: 5.9 g/dL
gamma-GTP [6]: 1.2 IU/L
A/G [7]: 1.8
ALP [7]: 589.2 IU/L
ALT [7]: 35.4 IU/L
AST [7]: 61.8 IU/L
BUN [7]: 17.6 mg/dL
CRE [7]: 0.6 mg/dL
Ca [7]: 10.4 mg/dL
Cl [7]: 105.4 meq/L
DBIL [7]: 0.004 mg/dL
GLC [7]: 173.2 mg/dL
IP [7]: 7.1 mg/dL
K [7]: 4.9 meq/L
LDH [7]: 84.6 IU/L
Na [7]: 139.6 meq/L
PL [7]: 201 mg/dL
RALB [7]: 4 g/dL
TBIL [7]: 0.4 mg/dL
TC [7]: 120.6 mg/dL
TG [7]: 119.6 mg/dL
TP [7]: 6.2 g/dL
gamma-GTP [7]: 2 IU/L
A/G [8]: 1.6
ALP [8]: 345.6 IU/L
ALT [8]: 35.6 IU/L
AST [8]: 55.2 IU/L
BUN [8]: 18.6 mg/dL
CRE [8]: 0.7 mg/dL
Ca [8]: 10.8 mg/dL
Cl [8]: 105 meq/L
DBIL [8]: 0.004 mg/dL
GLC [8]: 160.4 mg/dL
IP [8]: 7 mg/dL
K [8]: 4.7 meq/L
LDH [8]: 75 IU/L
Na [8]: 141.2 meq/L
PL [8]: 190.6 mg/dL
RALB [8]: 4.4 g/dL
TBIL [8]: 0.4 mg/dL
TC [8]: 118 mg/dL
TG [8]: 127.4 mg/dL
TP [8]: 7.2 g/dL
gamma-GTP [8]: 3.2 IU/L
